Experimental data: patent US4439426A, “Semisynthetic macrolidic antibiotics, intermediate compounds for their preparation and related pharmaceutical compositions containing them” (priority 1981, dated 1984)
≈ marks a conversion by molar mass, not a printed value.

Tests used:
Assay in all cases: Bacteriostatic power in solid medium (MIC)
Format in all cases: cell-based
[1] = system: Streptococcus pneumoniae ATCC 6303 LRP 52; conditions: Streptococcus pneumoniae, ATCC6303, read-out: Minimum inhibiting concentration
How it was run: (§1)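 Values are minimum inhibiting concentrations, taken as the measure of bacteriostatic power against both aerobic and anaerobic strains of either Gram type.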

[2] = system: Staphylococcus aureus ATCC 14154 LRP 78; conditions: Staphylococcus aureus, ATCC14154, read-out: Minimum inhibiting concentration
How it was run: as §1

[3] = system: Acholeplasma laidlawii ATCC 23206 LRP 204; conditions: Acholeplasma laidlawii, ATCC23206, read-out: Minimum inhibiting concentration
How it was run: as §1

[4] = system: Streptococcus pyogenes ATCC 8668 LRP 197; conditions: Streptococcus pyogenes, ATCC8668, read-out: Minimum inhibiting concentration
How it was run: as §1

[5] = system: Bacteroides fragilis ATCC 23745 LRP 205; conditions: Bacteroides fragilis, ATCC23745, read-out: Minimum inhibiting concentration
How it was run: as §1

[6] = system: Pseudomonas aeruginosa LRP 9; conditions: Pseudomonas aeruginosa, LRP9, read-out: Minimum inhibiting concentration
How it was run: as §1

## CC[C@H]1OC(=O)[C@H](C)[C@@H](O[C@H]2C[C@@](C)(OC)[C@@H](O)[C@H](C)O2)[C@H](C)[C@@H](O[C@@H]2O[C@H](C)C[C@H](N(C)C)[C@H]2O)[C@](C)(O)C[C@](C)(F)C(=O)[C@H](C)[C@@H](O)[C@]1(C)O [P-80206, (8S)-8-fluoroerythromycin A]
[1]
  MIC: 0.024 µg/mL (≈ 0.0319 µM)
[2]
  MIC: 25 µg/mL (≈ 33.2 µM)
[3]
  MIC: 0.097 µg/mL (≈ 0.129 µM)
[4]
  MIC: 0.012 µg/mL (≈ 0.016 µM)
[5]
  MIC: 0.195 µg/mL (≈ 0.259 µM)
[6]
  MIC: 25 µg/mL (≈ 33.2 µM)
